Like-named read-outs stand apart in the source and are kept apart here.
How the values were obtained:
[1] = test system: intestinal mucosa biopsies from the inflamed regions of the colon of IBD patients; experiment: Human biopsy assay (cytokine release from intestinal mucosa biopsies of IBD/UC patients); format: cell-based; settings: in vitro
Procedure: Intestinal mucosa biopsies are obtained from the inflamed regions of the colon of IBD patients. The biopsy material is cut into small pieces (2-3 mm) and placed on steel grids in an organ culture chamber at 37° C. in a 5% CO2/95% O2 atmosphere in serum-free media. DMSO control or test compounds at the desired concentration are added to the tissue and incubated for 24 hr in the organ culture chamber. The supernatant is harvested for determination of IL-6, IL-8, IL-1β and TNFα levels by R&D ELISA.

BDF1 mice = experiment: TNBS-induced colitis in mice; format: in vivo, mouse; settings: for inflammatory cell infiltrate in the reticular and lamina propria zones / activity in the in vivo model of colonic inflammation (histopathology analysis): TNBS; for activity in the in vivo model of colonic inflammation (histopathology analysis): 2 days; for ulcer grade and epithelial repair compared to the vehicle control: dosed orally at 5 mg/kg
Procedure: (C) TNBS-Induced Colitis in Mice […] On Day 0 of the study TNBS (200 μL) is administered intra-colonically via a plastic catheter followed by BID dosing of the vehicle, reference or test compound for 2 or 4 days. During the study animals are weighed every day and stool observations are made and recorded as a score, based on stool consistency. At the time of sacrifice on Day 2 (or Day 4) the large intestine is removed and the length and weight recorded. Sections of the colon are taken for either MPO analysis to determine neutrophil infiltration or for histopathology involving scoring to determine disease severity.

[2] = Hepatic microsomal stability; format: in vitro ADME, human; settings: for Mean hepatic extraction ratio (Eh) / microsomal CLint at 0.1 μM: human hepatic microsomes, arithmetic mean of two experiments; for microsomal CLint at 0.1 μM: pooled liver microsomes, read-out: Mean intrinsic clearance; for hepatic clearance: summary of Tables 9a and 9b (microsomes and hepatocytes; human, dog, rat)
Procedure: (§1) Hepatic Microsomal Stability
(§2) • Microsomal stability assays were performed with incubations of test compounds at 0.1 μM (n=2, final DMSO concentration 0.25%), and carried out using pooled human, dog and rat hepatic microsomes from Xenotech (Lots 1210153, 0810143 and 1110042, respectively) at 0.25 mg protein/mL in the presence of co-factor, NADPH. The incubations were performed at 37° C. with 100 μL aliquots taken from the incubation, at 0, 2, 5, 10 and 20 minutes and reactions terminated by addition of 100 μL of acetonitrile containing carbamazepine as analytical internal standard. […] Half-life values were calculated from the relationship
(§3) where λ was the slope of the Ln concentration vs time curve. • The in vitro intrinsic clearance, CIint (mL/min/kg), was calculated and scaled to hepatic extraction ratios using the following scaling parameters and formulae.
(§4) CIint(tissue clearance) mL/min/kg=[0.693/t½(min)]×[1/microsomal protein concentration mg/mL]×[mg microsomes/g liver]×[g liver/kg body weight]
(§5) CIint(hepatic clearance) mL/min/kg=hepatic blood flow×CIint/(hepatic blood flow+CIint)
(§6) Hepatic extraction ratio(Eh)=CIint(hepatic clearance) mL/min/kg/hepatic blood flow(mL/min/kg)

[3] = Hepatic microsomal stability; format: in vitro ADME; settings: arithmetic mean of two experiments; for microsomal CLint at 0.1 μM: pooled liver microsomes, read-out: Mean intrinsic clearance
Procedure: as §1, §2, §3, §4, §5, §6

[4] = Cryopreserved hepatocyte stability; format: in vitro ADME; settings: arithmetic mean of two experiments; for hepatocyte CLint at 0.1 μM: read-out: Mean intrinsic clearance
Procedure: Cryopreserved Hepatocyte Stability
• Hepatocyte stability assays were performed with incubations of test compounds (0.1 μM initial concentration, n=2) carried out with pooled human, dog and rat cryopreserved hepatocytes from Celsis (Lot numbers RRW, KLI and WAP, respectively) at a cell density of 0.5 million cells/mL. The incubations were performed at 37° C. with 100 μL samples taken from the incubation, at 0, 10, 20, 45 and 90 minutes, and reactions terminated by addition of 100 μL of acetonitrile containing carbamazepine as analytical internal standard. […] Half-life values were calculated from the relationship
T1/2(min)=−0.693/λ • where λ was the slope of the Ln concentration vs time curve. • Standard compounds testosterone, midazolam and 4-methylumbelliferone are included in the assay design. These compounds give an indication of the metabolic capacity of the cryopreserved preparations for both Phase I and Phase II reactions. • In vitro intrinsic clearance (CIint), as μL/min/million cells was calculated by applying the following formula to the half-life values:
CIint(Tissue Clearance) mL/min/kg=[0.693/t½(min)]×[1/hepatocyte concentration(million cells/mL)]×[million cells/g liver]×[g liver/kg body weight]
CIint(Hepatic clearance) mL/min/kg=hepatic blood flow×CIint/(hepatic blood flow+CIint)
Hepatic extraction ratio(Eh)=CIint(Hepatic clearance) mL/min/kg/hepatic blood flow(mL/min/kg)

[5] = target: T1, human ether a go-go (hERG) channel (Homo sapiens, UniProt Q12809); experiment: hERG inhibition (IonWorks patch clamp electrophysiology); format: cell-based; settings: maximum final assay concentration 3 μM
T1 construct: a Chinese Hamster Lung cell line stably expressing the full length hERG channel
T1 sequence (Q12809 whole entry): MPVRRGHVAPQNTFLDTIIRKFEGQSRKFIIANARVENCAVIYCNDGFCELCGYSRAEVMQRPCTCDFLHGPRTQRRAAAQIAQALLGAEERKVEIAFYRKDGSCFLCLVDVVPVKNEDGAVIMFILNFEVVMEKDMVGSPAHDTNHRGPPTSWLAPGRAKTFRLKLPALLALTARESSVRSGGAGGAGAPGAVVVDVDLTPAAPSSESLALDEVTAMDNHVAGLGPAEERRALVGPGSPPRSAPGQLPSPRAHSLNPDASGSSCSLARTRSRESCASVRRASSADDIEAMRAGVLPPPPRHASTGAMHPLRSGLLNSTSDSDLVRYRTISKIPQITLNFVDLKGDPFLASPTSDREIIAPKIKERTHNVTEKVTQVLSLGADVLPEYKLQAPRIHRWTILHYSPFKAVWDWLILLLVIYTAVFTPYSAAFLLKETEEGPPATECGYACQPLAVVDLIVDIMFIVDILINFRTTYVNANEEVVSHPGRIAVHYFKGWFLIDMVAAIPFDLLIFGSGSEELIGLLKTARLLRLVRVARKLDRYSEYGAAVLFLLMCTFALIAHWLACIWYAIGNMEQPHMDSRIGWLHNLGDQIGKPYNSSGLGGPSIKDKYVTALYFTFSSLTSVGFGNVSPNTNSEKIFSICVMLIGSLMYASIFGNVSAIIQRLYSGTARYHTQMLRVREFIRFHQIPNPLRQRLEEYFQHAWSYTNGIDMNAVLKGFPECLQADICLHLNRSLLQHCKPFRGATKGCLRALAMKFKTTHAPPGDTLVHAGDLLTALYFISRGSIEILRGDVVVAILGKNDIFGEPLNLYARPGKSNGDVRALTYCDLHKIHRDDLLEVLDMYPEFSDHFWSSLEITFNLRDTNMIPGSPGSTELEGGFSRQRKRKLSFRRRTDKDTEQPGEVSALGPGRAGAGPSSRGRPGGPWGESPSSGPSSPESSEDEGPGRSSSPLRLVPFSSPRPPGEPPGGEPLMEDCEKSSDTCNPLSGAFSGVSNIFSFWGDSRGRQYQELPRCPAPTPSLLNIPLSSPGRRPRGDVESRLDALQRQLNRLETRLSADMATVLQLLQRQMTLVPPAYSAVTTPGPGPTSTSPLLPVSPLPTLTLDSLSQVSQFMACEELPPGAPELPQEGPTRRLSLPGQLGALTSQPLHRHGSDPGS
Procedure: Eight-point concentration curves were generated using serial 3-fold dilutions from the maximum final assay concentration (3 μM). Electrophysiological recordings were made from a Chinese Hamster Lung cell line stably expressing the full length hERG channel. Single cell ionic currents were measured in the perforated patch clamp configuration (100 μg/mL) amphotericin) at room temperature (21-23° C.) using an IonWorks Quattro instrument. The internal solution contained (mM): 140 KCl, 1 MgCl2, 1 EGTA, 20 HEPES and was buffered to pH 7.3. The external solution contained (mM):138 NaCl, 2.7 KCl, 0.9 CaCl2, 0.5 MgCl2, 8 Na2HPO4, 1.5 KH2PO4, also buffered to pH 7.3. Cells were clamped at a holding potential of −70 mV for 30 s and then stepped to +40 mV for 1 s. This was followed by a hyperpolarising step of 1s to −30 mV to evoke the hERG tail current. This sequence was repeated 5 times at a frequency of 0.25 Hz. Currents were measured from the tail step at the 5th pulse, and referenced to the holding current. Compounds were then incubated for 6-7 minutes prior to a second measurement of the hERG signal using an identical pulse train. Eight-point concentration curves were generated using serial 3-fold dilutions from the maximum final assay concentration (3 μM).

B-Raf = B-Raf (Homo sapiens, UniProt P15056); experiment: Enzyme binding assay (Kinomescan)
Chain of B-Raf (P15056 whole entry): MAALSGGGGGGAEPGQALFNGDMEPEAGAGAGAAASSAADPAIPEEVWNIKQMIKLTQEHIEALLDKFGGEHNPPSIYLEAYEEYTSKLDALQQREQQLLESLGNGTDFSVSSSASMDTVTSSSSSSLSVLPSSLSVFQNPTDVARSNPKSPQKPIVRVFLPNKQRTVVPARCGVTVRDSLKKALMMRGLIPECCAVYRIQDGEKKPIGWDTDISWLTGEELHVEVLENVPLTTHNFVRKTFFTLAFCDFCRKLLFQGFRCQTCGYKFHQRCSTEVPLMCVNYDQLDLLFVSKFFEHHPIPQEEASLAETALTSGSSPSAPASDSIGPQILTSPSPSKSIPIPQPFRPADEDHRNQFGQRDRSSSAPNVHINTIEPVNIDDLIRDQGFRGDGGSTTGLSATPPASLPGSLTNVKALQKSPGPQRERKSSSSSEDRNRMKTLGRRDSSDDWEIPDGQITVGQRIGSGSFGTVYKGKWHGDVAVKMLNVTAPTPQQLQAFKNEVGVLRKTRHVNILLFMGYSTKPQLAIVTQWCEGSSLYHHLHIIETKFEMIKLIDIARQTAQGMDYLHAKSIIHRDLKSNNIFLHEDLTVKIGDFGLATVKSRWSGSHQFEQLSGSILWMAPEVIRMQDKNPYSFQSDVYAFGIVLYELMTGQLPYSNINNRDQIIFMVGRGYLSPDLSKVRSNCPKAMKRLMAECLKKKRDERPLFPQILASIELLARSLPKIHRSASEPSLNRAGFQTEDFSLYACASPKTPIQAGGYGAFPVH
Procedure: Enzyme Binding Assays (Kinomescan)
The kinase enzyme binding activities of compounds disclosed herein were determined using a proprietary assay which measures active site-directed competition binding to an immobilized ligand (Fabian, M. A. et al., Nature Biotechnol., 2005, 23:329-336). These assays were conducted by DiscoverX (formerly Ambit; San Diego, Calif.). The percentage inhibition produced by incubation with a test compound is calculated relative to the non-inhibited control.

[6] = human cryopreserved hepatocytes
[7] = pooled cryopreserved hepatocytes, dog cryopreserved hepatocytes
[8] = pooled cryopreserved hepatocytes, rat cryopreserved hepatocytes
[9] = pooled cryopreserved human hepatocytes

inhibition at 0.5 µM (B-Raf; read-out: % Inhibition of kinase binding at 500 nM, B-Raf) | Compound | IL-1b, IL-6 and IL-8 release from biopsies of UC patients [1] | inflammatory cell infiltrate in the reticular and lamina propria zones (BDF1 mice) | activity in the in vivo model of colonic inflammation (histopathology analysis) (BDF1 mice) | ulcer grade and epithelial repair compared to the vehicle control (BDF1 mice) | Mean hepatic extraction ratio (Eh) [2] | microsomal CLint at 0.1 μM [2] | hepatic clearance [2] | Mean hepatic extraction ratio (Eh) ([3]; dog hepatic microsomes) | microsomal CLint at 0.1 μM ([3]; dog hepatic microsomes) | microsomal CLint at 0.1 μM ([3]; rat hepatic microsomes) | Mean hepatic extraction ratio (Eh) ([3]; rat hepatic microsomes) | Mean hepatic extraction ratio (Eh) ([4]; dog cryopreserved hepatocytes) | Mean hepatic extraction ratio (Eh) [4, 6] | hepatocyte CLint at 0.1 μM [4, 7] | hepatocyte CLint at 0.1 μM [4, 8] | hepatocyte CLint at 0.1 μM [4, 9] | Mean hepatic extraction ratio (Eh) ([4]; rat cryopreserved hepatocytes) | IC50 [5] | effect on the binding of the kinase B-Raf to its standard ligand (B-Raf; KINOMEscan)
 | C#Cc1cc(Nc2nccc(Oc3ccc(NC(=O)Nc4cc(C(C)C)nn4-c4ccc(C)cc4)c4ccccc34)n2)cc(C(=O)NCCN2CCOCC2)c1 [Example 46, 3-ethynyl-5-((4-((4-(3-(3-isopropyl-1-(p-tolyl)-1H-pyrazol-5-yl)ureido)naphthalen-1-yl)oxy)pyrimidin-2-yl)amino)-N-(2-morpholinoethyl)benzamide] | markedly reduced | marked reduction | significant activity | marked improvements |  |  |  |  |  |  |  |  |  |  |  |  |  |  | 
 | C#Cc1cc(Nc2nccc(Oc3ccc(NC(=O)Nc4cc(C(C)(C)C)nn4-c4ccc(N(C)C)cc4)c4ccccc34)n2)cc(C(=O)NCCN2CCOCC2)c1 [Example 80, 3-((4-((4-(3-(3-(tert-Butyl)-1-(4-(dimethylamino)phenyl)-1H-pyrazol-5-yl)ureido)naphthalen-1-yl)oxy)pyrimidin-2-yl)amino)-5-ethynyl-N-(2-morpholinoethyl)-benzamide] |  |  |  |  | 0.93 | 216 µL/min/mg | high hepatic clearance | 0.91 | 146 µL/min/mg | 91 µL/min/mg | 0.77 | 0.73 | <0.61 | 11 µL/min/1e6 cells | < 8 µL/min/1e6 cells | < 11 µL/min/1e6 cells | <0.44 | > 3 µM | 
 | C#Cc1cc(Nc2nccc(Oc3ccc(NC(=O)Nc4cc(C(C)(C)C)nn4-c4ccc(OC)cc4)c4ccccc34)n2)cc(C(=O)NCCN2CCOCC2)c1 [Example 77, 3-((4-((4-(3-(3-(tert-Butyl)-1-(4-methoxyphenyl)-1H-pyrazol-5-yl)ureido)-naphthalen-1-yl)oxy)pyrimidin-2-yl)amino)-5-ethynyl-N-(2-morpholinoethyl)benzamide] | markedly reduced | marked reduction | significant activity | marked improvements | 0.94 | 308 µL/min/mg | high hepatic clearance | 0.94 | 189 µL/min/mg | 120 µL/min/mg | 0.82 | 0.87 | 0.69 | 26 µL/min/1e6 cells | 12 µL/min/1e6 cells | 16 µL/min/1e6 cells | 0.55 | > 3 µM | did not have any effect on the binding
29% | COc1cc(Nc2nccc(Oc3ccc(NC(=O)Nc4cc(C(C)C)nn4-c4ccc(C)cc4)c4ccccc34)n2)cc(C(=O)NCCN2CCOCC2)c1 [Example 8, 3-((4-((4-(3-(3-Isopropyl-1-(p-tolyl)-1H-pyrazol-5-yl)ureido)naphthalen-1-yl)oxy)pyrimidin-2-yl)amino)-5-methoxy-N-(2-morpholinoethyl)benzamide] |  |  |  |  |  |  |  |  |  |  |  |  |  |  |  |  |  |  | 

Source: patent US20140057915A1, “KINASE INHIBITORS” (TOPIVERT PHARMA LIMITED, priority 2012, published 2014)
